From patent US5106851A, “Benzofused-N-containing heterocycle derivatives” (Istituto de Angeli S.p.A., priority 1989, dated 1992)
Where two headings read alike, the source gives them in different places.

Assays:
[1] = tested on: muscarinic responses in guinea pig longitudinal ileum and guinea pig paced left atria; details: prototype compound, in words; cited from earlier work
[2] = tested on: Muscarinic receptors in the heart; experiment: In vivo inhibition of acetylcholine-induced bradycardia in the anaesthetized guinea pig; details: Cavia porcellus, iv, 5 min; i.v., 5 min before acetylcholine 50 μg/kg; dose in mol/kg; read-out: -log ED50, heart (converted)
Experimental: (§1) Guinea pigs of either sex (550-600 g) were anaesthetized with urethane (1.4 g/kg, i.p.). A jugular vein was cannulated for injection of drugs. Heparin (200 I.U./kg) was injected i.v. A cannula was placed in the trachea and the animals were artificially respirated with oxygenated room air by means of a positive pressure pump (Braun-Melsungen) with a rate of 80 strokes/min. A side arm of the tracheal cannula was connected to a water manometer of 10 cm height. The respiratory volume was adjusted so that the maximal intratracheal pressure during inspiration just attained to a pressure of 10 cm water.
A cannula was placed in the left common carotid artery and arterial blood pressure was measured via a Bell and Howell 4-327 I pressure transducer connected to an IFD recording device. Cardiac frequency was measured by a ratemeter, triggered by the arterial pulsewave.
The drugs to be tested were injected via the jugular vein and 5 min later bronchial resistence (%) and the decrease in cardiac frequence (beats/min) to acetylcholine (50 μg/kg i.v. and i.a.) was measured. Dose response curves were constructed by plotting the percent inhibition of bronchoconstriction and bradycardia against the logarithm of the dose (mol/kg) of the drugs to be tested.

Muscarinic M2 = target: T1, Muscarinic M2 (Rattus norvegicus, UniProt P10980); experiment: Displacement of 3H-NMS from total heart homogenate (receptor binding studies in vitro)
T1 construct: displacement of ^3 H-NMS from total heart homogenate; from tissue; host or cells: total heart homogenate
T1 sequence (P10980 1-466): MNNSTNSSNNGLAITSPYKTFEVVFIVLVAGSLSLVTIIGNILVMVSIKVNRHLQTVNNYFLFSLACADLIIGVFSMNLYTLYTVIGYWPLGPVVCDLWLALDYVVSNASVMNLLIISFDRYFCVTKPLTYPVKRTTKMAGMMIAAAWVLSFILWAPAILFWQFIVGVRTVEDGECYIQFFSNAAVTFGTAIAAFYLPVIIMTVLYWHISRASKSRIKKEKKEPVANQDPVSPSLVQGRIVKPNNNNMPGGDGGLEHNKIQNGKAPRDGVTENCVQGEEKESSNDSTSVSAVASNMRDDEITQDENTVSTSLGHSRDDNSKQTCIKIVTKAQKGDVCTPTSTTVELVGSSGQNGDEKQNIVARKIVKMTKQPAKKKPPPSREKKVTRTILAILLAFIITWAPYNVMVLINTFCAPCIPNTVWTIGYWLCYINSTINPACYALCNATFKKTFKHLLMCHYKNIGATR
Experimental: (§2) Muscarinic M1 activity was determined by studying the displacement of ^3 H-pirenzepine from cerebral cortex homogenate according to the procedure reported below: The cerebral cortex donors were male CD-COOBBS rats, 220-250 g body weight. The homogenization process was carried out in a Potter-Evelhjem apparatus in the presence of Na^+ /Mg^++ HEPES buffer; pH 7.4 (100 mM NaCl, 10 mM MgCl2, 20 mM HEPES); by filtering the suspension through two layers of cheesecloth. Binding curves for the under study compounds were derived indirectly from competition experiments against 0.5 nM ^3 H-pirenzepine labelling the muscarinic receptors of the cerebral cortex. 1 ml of the homogenate was incubated for 45 min at 30° C. in the presence of a maker ligand and different concentration of the cold ligand, conditions under which equilibrium was reached as determined by appropriate association experiments. The incubation was terminated by centrifugation (12,000 rpm for 3 min) at room temperature using an Eppendorf microcentrifuge. The resultant pellet was washed twice with 1.5 ml saline to remove the free radioactivity and it was allowed to dry. The tips of the tubes containing the pellet were cut off and 200 μl of tissue solubilizer (Lumasolve, Lumac) were added and left to stand overnight. Radioactivity was then counted after addition of 4 ml of liquid scintillation mixture (Dimilume/Toluene 1+10 v:v, Packard).
(§3) Assays were carried out in triplicate or quadruplicate and the non-specificbinding was defined as the radioactivity bound or entrapped in the pellet when the incubation medium contained 1 μM atropine sulphate. Non-specific binding averaged less than 30%. KD values (dissociation constants) were obtained by non-linear regression analysis on the basis of one binding site model with TOPFIT-pharmacokinetic programme package (G. Heinzel "Pharmacokinetics During Drug Development: Data Analysis and Evaluation Techniques" Eds. G. Bolzer and J. M. Van Rossum; p. 207, G. Fisher, New York, 1982) after correction for the radioligand occupancy shift according to the equation: KD =IC50 /1+*C/*KD, where *C and *KD represent the concentration and the dissociation constants of the radioligand, used respectively. Muscarinic M2 activity was examined by studing the displacement of ^3 H-NMS from total heart homogenate according to a procedure identical to the one already described hereinbefore for the muscarinic M1 activity.

[3] = tested on: Muscarinic receptors in the bronchi; experiment: In vivo inhibition of acetylcholine-induced bronchoconstriction in the anaesthetized guinea pig; details: Cavia porcellus, iv, 5 min; i.v., 5 min before acetylcholine 50 μg/kg; dose in mol/kg; read-out: -log ED50, bronchi (converted)
Experimental: as §1
Excepts for some modifications, the effects of the drugs on bronchial tone was measured according to the method described by Konzett and Rossler (1940). The bronchoconstriction-evoked volume of respiratory gas mixture (overflow) passing through the water manometer was measured by means of a FLEISCH tube pneumotachometer (Model 0000) connected to a SP 2040 D differential pressure transducer (HSE). Registration was performed on a IFD recording device. […]
The drugs to be tested were injected via the jugular vein and 5 min later bronchial resistence (%) and the decrease in cardiac frequence (beats/min) to acetylcholine (50 μg/kg i.v. and i.a.) was measured. […]

guinea pig ileum = target: T2, guinea pig ileum (Cavia porcellus, UniProt H0W1Z3); experiment: Functional studies in vitro, isolated guinea pig ileum contracted with bethanechol
T2 construct: A 2 cm section of terminal ileum was prepared; from tissue; host or cells: isolated guinea pig terminal ileum
T2 sequence (H0W1Z3 1-590): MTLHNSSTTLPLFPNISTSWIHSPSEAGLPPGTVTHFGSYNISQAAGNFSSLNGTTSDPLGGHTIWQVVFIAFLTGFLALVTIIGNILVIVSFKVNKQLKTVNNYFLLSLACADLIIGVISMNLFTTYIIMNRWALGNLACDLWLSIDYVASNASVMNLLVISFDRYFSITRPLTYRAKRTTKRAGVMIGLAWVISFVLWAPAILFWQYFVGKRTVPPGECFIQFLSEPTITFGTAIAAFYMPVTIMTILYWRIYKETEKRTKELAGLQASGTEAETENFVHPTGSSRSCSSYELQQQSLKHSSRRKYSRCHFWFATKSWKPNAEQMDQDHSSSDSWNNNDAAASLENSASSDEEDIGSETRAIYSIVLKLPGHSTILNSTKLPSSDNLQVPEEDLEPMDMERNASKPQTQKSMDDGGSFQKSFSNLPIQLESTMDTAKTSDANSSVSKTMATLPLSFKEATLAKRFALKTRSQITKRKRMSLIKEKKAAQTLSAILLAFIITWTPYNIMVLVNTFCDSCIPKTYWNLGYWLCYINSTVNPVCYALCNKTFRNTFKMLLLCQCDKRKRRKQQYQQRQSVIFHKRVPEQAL
Experimental: (§4) Antimuscarinic activity and selectivity were examined in in vitro by receptor binding studies in two tissues endowed with M1 and M2 muscarinic receptors (cerebral cortex, heart), in functional studies in isolated guinea pig ileum and guinea pig paced left atria and in in vivo functional tests on bronchi and heart of the anaesthetized guinea pig.
Responses were recorded isotonically. Kb values were calculated according to Arunlakshana and Shild (British Journal of Pharmacology 14, 48-54, 1959).

guinea pig left atria = target: T3, guinea pig left atria (Cavia porcellus, UniProt H0VRN8); experiment: Functional studies in vitro, guinea pig paced left atria, bethanechol negative inotropic effect
T3 construct: guinea pig paced left atria; from tissue; host or cells: isolated guinea pig left atria
T3 sequence (H0VRN8 1-466): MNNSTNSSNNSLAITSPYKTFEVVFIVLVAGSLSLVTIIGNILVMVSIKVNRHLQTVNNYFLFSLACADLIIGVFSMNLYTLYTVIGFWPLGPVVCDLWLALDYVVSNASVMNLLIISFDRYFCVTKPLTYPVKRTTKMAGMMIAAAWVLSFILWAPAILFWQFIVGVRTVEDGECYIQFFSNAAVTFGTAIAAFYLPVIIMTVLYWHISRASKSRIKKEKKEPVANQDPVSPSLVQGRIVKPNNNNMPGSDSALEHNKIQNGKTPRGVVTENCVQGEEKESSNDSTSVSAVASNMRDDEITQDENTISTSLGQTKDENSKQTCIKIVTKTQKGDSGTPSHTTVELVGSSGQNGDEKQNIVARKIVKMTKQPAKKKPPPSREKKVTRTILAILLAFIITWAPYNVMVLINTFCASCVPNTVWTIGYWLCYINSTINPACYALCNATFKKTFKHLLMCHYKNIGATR
From the text: as §4
The tissues were mounted in the Ewen's solution (millimolar: NaCl, 131.6; KCl, 5.6; CaCl2, 2.16; NaHCO3, 24.9; NaH2 PO4, 1.03; glucose, 11; and sucrose, 13) at 32° C. and stimulated through platinum electrodes by squarewave pulses (2 msec, 3 Hz, 100% above threshold voltage, delivered by a Grass S 48 stimulator). Inotropic activity was recorded isometrically (Statham transducer, Battaglia Rangoni ESO 300 recorder). Cumulative concentrations of bethanecol (1-30 μM) were used to induce a negative inotropic effect. Kb values were estimated as above described.

Muscarinic M1 = target: T4, Muscarinic M1 (Rattus norvegicus, UniProt P08482); experiment: Displacement of 3H-pirenzepine from cerebral cortex homogenate (receptor binding studies in vitro)
T4 construct: displacement of ^3 H-pirenzepine from cerebral cortex homogenate; from tissue; host or cells: rat cerebral cortex homogenate
T4 sequence (P08482 1-460): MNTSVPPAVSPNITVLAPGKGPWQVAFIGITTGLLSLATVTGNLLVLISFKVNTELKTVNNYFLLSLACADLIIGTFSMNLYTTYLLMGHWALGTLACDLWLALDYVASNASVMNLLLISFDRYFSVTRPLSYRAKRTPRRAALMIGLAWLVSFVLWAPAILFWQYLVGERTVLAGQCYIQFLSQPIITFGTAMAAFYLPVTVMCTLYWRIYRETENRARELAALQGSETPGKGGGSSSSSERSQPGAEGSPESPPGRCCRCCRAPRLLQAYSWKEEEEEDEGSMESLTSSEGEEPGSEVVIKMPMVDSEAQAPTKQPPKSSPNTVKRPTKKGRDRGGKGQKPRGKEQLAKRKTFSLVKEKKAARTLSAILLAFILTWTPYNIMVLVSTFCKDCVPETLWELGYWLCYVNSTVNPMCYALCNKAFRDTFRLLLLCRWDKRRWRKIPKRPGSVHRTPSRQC
Experimental: as §2, §3

[4] = tested on: receptors with low affinity to Pirenzepine (M2 type); details: mainly in effector organs; cited from earlier work
[5] = total heart homogenate, 3H-NMS, read-out: KD, M2 (heart)

## CCN(CC)CC1CCCCN1CC(=O)N1c2ccccc2C(=O)Nc2cccnc21 (centres unmarked) [AF-DX-116, 11-2-{[2-(diethylamino)methyl-1-piperidinyl]acetyl}-5,11-dihydro-6H-pyrido (2,3-b)(1,4)benzodiazepin-6-one]
[1]
  tissue selectivity among muscarinic antagonists: cardioselective

## C[N+]1(C)CCC(OC(=O)C(c2ccccc2)c2ccccc2)CC1 [Compound 4-DAMP, 4-diphenylacetoxy-N-methylpiperidine methobromide]
[1]
  tissue selectivity among muscarinic antagonists: smooth muscle selective

## CN1[C@@H]2CC[C@H]1C[C@@H](OC(=O)N1Cc3ccccc3NC1=O)C2 [Compound 16, 1,4-dihydro-2(H)-2-oxo-3-quinazoline carboxylic acid-(endo-8-methyl-8-azabicyclo[3.2.1]oct-3-yl), ester]
[2]
  ED50: 1 µmol/kg
Muscarinic M2
  Kd: 0.133 µM
[3]
  ED50: 0.00794 µmol/kg
Guinea pig ileum
  Kb: 0.0015 µM
Guinea pig left atria
  Kb: 0.122 µM
Muscarinic M1; cerebral cortex homogenate, 0.5 nM 3H-pirenzepine, 45 min at 30° C., pH 7.4, read-out: KD, M1 (cortex)
  Kd: 0.001 µM

## CN1[C@@H]2CC[C@H]1C[C@@H](NC(=O)N1Cc3ccccc3NC1=O)C2 [Compound 23, N-(endo-8-methyl-8-azabicyclo[3.2.1]oct-3-yl)-1,4-dihydro-2(H)-2-oxo-3-quinazoline carboxamide]
Muscarinic M2
  Kd: 0.06 µM
Guinea pig ileum; functional studies, guinea pig ileum, bethanechol 0.3-10 μM, read-out: Kb, ileum
  Kb: 0.0006 µM
Guinea pig left atria; functional studies, guinea pig paced left atria, bethanechol 1-30 μM, 32° C., read-out: Kb, heart
  Kb: 0.022 µM
Muscarinic M1
  Kd: 0.001 µM

## CN1[C@@H]2CC[C@H]1C[C@@H](OC(=O)N1Cc3ccc(Cl)cc3NC1=O)C2 [Compound 25, 7-chloro-1,4-dihydro-2(H)-2-oxo-3-quinazoline carboxylic acid-(endo-8-methyl-8-azabicyclo[3.2.1]oct-3-yl), ester]
Muscarinic M2; [5]
  Kd: 1.47 µM
Guinea pig ileum
  Kb: 0.016 µM
Guinea pig left atria
  Kb: 2.2 µM
Muscarinic M1
  Kd: 0.007 µM

## CN1[C@@H]2CC[C@H]1C[C@@H](OC(=O)N1Cc3cc(F)ccc3NC1=O)C2 [Compound 26, 1,4-dihydro-6-fluoro-2(H)-2-oxo-3-quinazoline carboxylic acid-(endo-8-methyl-8-azabicyclo[3.2.1]oct-3-yl), ester]
Muscarinic M2; [5]
  Kd: 0.4 µM
Guinea pig ileum
  Kb: 0.0045 µM
Guinea pig left atria
  Kb: 0.25 µM
Muscarinic M1
  Kd: 0.003 µM

## CN1C2CCC1CC(OC(=O)N1C(=O)Nc3ccccc3C1O)C2 (stereo not drawn) [Compound 49, 1,4-dihydro-4-hydroxy-2(H)-2-oxo-3-quinazolinecarboxylic acid-(endo-8-methyl-8-azabicyclo[3.2.1]oct-3-yl), ester]
Muscarinic M2; [5]
  Kd: 0.25 µM
Guinea pig ileum
  Kb: 0.001 µM
Guinea pig left atria
  Kb: 0.075 µM
Muscarinic M1
  Kd: 0.002 µM

## CN1CCN(CC(=O)N2c3ccccc3C(=O)Nc3cccnc32)CC1 [Pirenzepine]
[4]
  affinity at M2 type receptors: low affinity

## CC(C[N+](C)(C)C)OC(N)=O (centres unmarked) [bethanechol, reference compound]
Guinea pig ileum; guinea pig terminal ileum, Tyrode solution, cumulative conc. 0.3-10 μM, read-out: EC50 of bethanechol (contraction)
  EC50: 1.5 µM
